Tests used:
Rat EP4 = target: T1, Rat EP4 (Rattus norvegicus, UniProt P43114); assay: EP4 cAMP antagonist assay (HTRF), rat EP4; assay type: cell-based; details: read-out: cAMP Antagonism Rat EP4 IC50
T1 construct: expressed in transfected cells
Procedure: Human EP4 (GenBank Accession # AY429109, Clone ID PER0400000, UMR cDNA Resource Center, Rolla, MO) was stably expressed in HEK293 cells. Rat EP4 cDNA (GenBank Accession# NM_03276) was cloned into pcDNA 3.1 vector and stably transfected into HEK293 cells. The cell lines were maintained in DMEM (invitrogen) supplemented with 10% fetal bovine serum (FBS), 1 mmol/L sodium pyruvate, 10 mmol/L HEPES, 500 μg/mL geneticin and 2 mmol/L L‐glutamine. Confluent cultures were grown at 37°C in an atmosphere containing 5% CO2. Cells were harvested using 0.25% Trypsin‐ EDTA, suspended in freeze media at a density of 10^7cel1s/mL, and aliquots were stored in liquid nitrogen. Immediately prior to the assay, cells were thawed with DMEM and suspended in cAMP assay buffer (HBSS with 0.1% BSA, 20 mmol/L HEPES and 200 μmol/L IBMX).
CJ‐023,423 served as the positive control. To measure the cAMP levels, cAMP‐d2 conjugate and anti cAMP‐cryptate conjugate in lysis buffer were incubated with the treated cells at room temperature for 1 h. The HTRF signal was detected using an EnVision plate reader (Perkin‐Elmer, Inc., Waltham, MA, USA.) to calculate the ratio of fluorescence at 665 to 620 nm. The raw data were converted to cAMP (nmol/L) using a cAMP standard curve generated for each experiment. Data were analyzed using a 4‐parameter nonlinear logistic equation. Results are expressed as the geometric mean ± standard deviation or geometric mean ± standard error as noted.

[1] = target: T2, TP (TXA2/PGH2) (h); agonist effect (Homo sapiens, UniProt P21731); assay: Off-target activity (CEREP), TP agonist effect; assay type: biochemical; details: 10 μmol/L; obtained at CEREP (Blanco et al. 2016c)
T2 construct: CEREP (contract laboratory that ran the assay)
T2 sequence (P21731 1-343): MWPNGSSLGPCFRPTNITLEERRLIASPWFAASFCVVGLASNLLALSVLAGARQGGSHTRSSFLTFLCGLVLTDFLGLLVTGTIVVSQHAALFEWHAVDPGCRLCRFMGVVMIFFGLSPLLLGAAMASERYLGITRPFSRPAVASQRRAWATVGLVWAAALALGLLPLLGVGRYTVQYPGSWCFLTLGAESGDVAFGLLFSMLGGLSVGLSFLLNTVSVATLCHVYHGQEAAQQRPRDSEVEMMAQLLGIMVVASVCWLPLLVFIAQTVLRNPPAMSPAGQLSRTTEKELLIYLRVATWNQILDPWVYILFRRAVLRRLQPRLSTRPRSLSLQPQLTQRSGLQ
Source text: (§1) The off‐target activity related to prostaglandin pathway (Table 2) were obtained at CEREP (Blanco et al. 2016c).

[2] = target: T3, FP(h); agonist radioligand (Homo sapiens, UniProt P43088); assay: Off-target activity (CEREP), FP; assay type: binding; details: 10 μmol/L; obtained at CEREP (Blanco et al. 2016c)
T3 construct: CEREP (contract laboratory that ran the assay)
Source text: as §1

[3] = system: male Lewis rats, MIA injected knee; assay: Rat MIA model of pain (incapacitance testing); assay type: in vivo; details: 1 h post dose, P < 0.05 by Dunnett's test
Procedure: For the monoiodoacetate (MIA) and adjuvant induced arthritis (AIA) studies, male Lewis rats (Envigo, Indianapolis, IN) of approximately 8 weeks of age at the time of disease induction were used. For collagen induced arthritis studies (CIA) female Lewis rats (Charles River) weighing 150–170 g were used. Rats were housed in groups of 2 or 3 per cage and maintained in a constant temperature, and on a 12 h light/12 h dark cycle. Animals had free access to food and water at all times except during data collection.
The right knees of rats were injected with 0.3 mg of MIA (Sigma Aldrich) in 50 μL of saline and the left knees with 50 μL of saline on day zero. These intra‐articular injections are directly into the synovial cavity of the flexed knee joint through the patella ligament. Twelve days later, the rats were randomized into groups of five rats using body weight and the Block Randomized Allocation Tool. […] Reference compound CJ‐042,794 was also tested in the MIA model on day 14 post MIA injection at doses of 1, 3, 10, 30, and 50 mg/kg with the vehicle being 10% Solutol in PEG400 (n = 4 rats per group). The nonsteroidal anti‐inflammatory drug (NSAID) diclofenac was included in all studies at a dose of 5 mg/kg as a positive control. […] Pain was measured using incapacitance testing. […]

Human EP4 = Human EP4 (Homo sapiens, UniProt P35408); assay: [3H]-PGE2 receptor binding assay, EP4 membranes; parameters: expressed in transfected cells; membrane preparation; details: HEK293 membranes, geometric mean ± SEM, read-out: hEP1-4 receptor binding EP4 Ki
Procedure: Receptor binding assays were done using membrane preparations of HEK 293 cells transfected with various prostanoid receptors using previously published procedure (Nakao et al. 2007). EP1 and EP4 membranes were prepared from recombinant HEK293 cells stably expressing human EPl receptor (GenBank Accession # AY275470, Clone ID PER0100000, UMR cDNA Resource Center, Rolla, MO) or human EP4 receptor. EP2 and EP3 membranes were prepared from HEK293 cells transiently transfected with human EP2 receptor (GenBank Accession # AY275471, Clone ID PER0200000, UMR cDNA Resource Center, Rolla, MO) or human EP3 receptor (GenBank Accession # AY429108, Clone ID PER3VI0000, UMR cDNA Resource Center, Rolla, MO) plasmids. Frozen cell pellets were homogenized in homogenization buffer (10 mmol/L Tris‐HCl, pH7.4, 250 mmol/L sucrose, 1 mmol/L EDTA, 0.3 mmol/L indomethacin and protease inhibitor cocktail with EDTA (Roche Molecular Biochemicals, catalog # 1691498)) using a Teflon/glass homogenizer. After a low speed centrifugation (200g for 15 min at 4°C) the supernatant was subjected to high speed centrifugation (30,000g for 60 min at 4°C). Membrane protein preparation was aliquoted and quick frozen on dry ice prior to storage at −80°C. […] Compounds were tested in a 96‐well format using a three‐fold dilution series to generate 10‐point curves. […] The binding reaction was performed in 200 μL MES buffer (10 mmol/L MES, pH 6.0, 10 mmol/L MgCl2, and l mmol/L EDTA) using polystyrene 96‐well plates. […] The membranes were harvested by filtration (TomTek harvester), washed four times with cold buffer (10 mmol/L MES, pH 6.0, 10 mmol/L MgCl2), dried in a 60°C oven, and the radioactivity was quantified as counts per min (CPM) using a TopCount detector. […] Data were analyzed using a 4‐parameter nonlinear logistic equation. K i Conversion from IC50 Values (K i = […] where [L] is the ligand concentration). Results are expressed as the geometric mean ± standard deviation or geometric mean ± standard error as noted.

Human EP4, sequence (P35408 whole entry): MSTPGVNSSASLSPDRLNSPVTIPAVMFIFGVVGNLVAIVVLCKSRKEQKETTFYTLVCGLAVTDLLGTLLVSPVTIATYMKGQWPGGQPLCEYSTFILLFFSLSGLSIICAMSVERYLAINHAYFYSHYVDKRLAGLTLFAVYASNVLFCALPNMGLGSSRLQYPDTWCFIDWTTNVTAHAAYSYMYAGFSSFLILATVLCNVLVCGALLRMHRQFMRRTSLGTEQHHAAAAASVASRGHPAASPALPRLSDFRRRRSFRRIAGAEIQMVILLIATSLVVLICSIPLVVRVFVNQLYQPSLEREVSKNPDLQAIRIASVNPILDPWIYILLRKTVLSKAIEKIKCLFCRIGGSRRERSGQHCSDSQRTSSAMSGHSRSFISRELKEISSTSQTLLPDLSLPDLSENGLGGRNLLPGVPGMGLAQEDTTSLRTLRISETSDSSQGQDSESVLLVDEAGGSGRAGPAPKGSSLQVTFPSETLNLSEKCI
T1 sequence (P43114 whole entry): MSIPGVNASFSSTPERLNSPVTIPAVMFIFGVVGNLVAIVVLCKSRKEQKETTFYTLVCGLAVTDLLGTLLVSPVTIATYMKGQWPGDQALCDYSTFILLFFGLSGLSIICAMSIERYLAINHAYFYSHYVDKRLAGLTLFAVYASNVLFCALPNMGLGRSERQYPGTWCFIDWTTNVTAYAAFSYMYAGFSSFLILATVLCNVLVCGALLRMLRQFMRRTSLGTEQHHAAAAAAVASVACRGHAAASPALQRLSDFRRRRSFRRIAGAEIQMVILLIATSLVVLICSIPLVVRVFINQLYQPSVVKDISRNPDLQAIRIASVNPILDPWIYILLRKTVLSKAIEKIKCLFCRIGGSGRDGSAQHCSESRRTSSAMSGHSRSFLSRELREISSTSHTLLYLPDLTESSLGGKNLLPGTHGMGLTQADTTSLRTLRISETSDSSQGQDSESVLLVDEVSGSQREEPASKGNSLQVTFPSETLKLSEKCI
T3 sequence (P43088 whole entry): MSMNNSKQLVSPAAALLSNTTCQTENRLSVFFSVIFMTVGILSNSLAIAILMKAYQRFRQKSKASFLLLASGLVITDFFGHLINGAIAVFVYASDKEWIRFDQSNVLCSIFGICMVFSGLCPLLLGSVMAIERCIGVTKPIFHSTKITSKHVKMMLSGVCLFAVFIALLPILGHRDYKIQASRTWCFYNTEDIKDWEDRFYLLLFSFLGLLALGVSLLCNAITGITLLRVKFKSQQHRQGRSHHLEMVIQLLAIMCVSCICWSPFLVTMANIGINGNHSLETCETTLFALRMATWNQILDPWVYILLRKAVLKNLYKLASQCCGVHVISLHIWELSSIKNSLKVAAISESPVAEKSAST

Row | SMILES | IC50 (Rat EP4) [nM] | % Inh TP (TXA2/PGH2) (h); agonist effect [1] [%] | % Inh FP(h); agonist radioligand [2] [%] | pain efficacy (normalization of hind paw weight distribution, incapacitance testing) ([3]; 1, 3, and 10 mg/kg oral) | pain efficacy (incapacitance testing) versus vehicle ([3]; 3, 10, 30, and 50 mg/kg oral) | Ki (Human EP4) [nM]
1 | C[C@H](NC(=O)[C@H]1CCCCN1CCOc1ccccc1)c1ccc(C(=O)O)cc1 [Compound 2] | 15.4 | −2.00 | −9.00 | effective |  | 
2 | C[C@H](NC(=O)c1cc(Cl)ccc1Oc1ccc(F)cc1)c1ccc(C(=O)O)cc1 [CJ‐042,794, reference compound] | 20.6 ± 1.8 |  |  |  | significantly different from vehicle | 12.6 ± 7.36
3 | Cc1ccc(N2CCC(O)CC2)nc1C(=O)Nc1c(C)cc(C(=O)O)cc1C [Compound 1] | 12.3 | −4.00 | −2.00 |  |  | 58 ± 12
4 | Cc1ccc(-c2cccc(CO)c2)nc1C(=O)Nc1c(C)ccc(C(=O)O)c1C [Compound 3] | 1 |  |  |  |  | 2.07 ± 1.31
